Results reported in PubChem BioAssay AID228 (DTP/NCI, 2004).
Values joined by “and” are separate entries in the source; they are usually repeats but may differ in a detail not shown here. Equal entries are not always repeated. Inconclusive results are not listed.

System: BDF1 mice, Friend leukemia sc, tumor weight T/C
Assay: NCI In Vivo Anticancer Drug Screen. Data for tumor model Friend Virus Leukemia (Solid) (subcutaneous) in B6D2F1 (BDF1) mice
Conditions: endpoint: mean tumor weight, higher = larger tumour
Procedure: The antitumor activity of compounds was measured in mice bearing transplantable tumors. Survival or tumor size were measured and the results are expressed as the measurement made in the treated group (T) divided by the measurement made in the vehicle treated control group (C). The tumor model used in this assay is Friend Virus Leukemia (Solid) (subcutaneous) in B6D2F1 (BDF1) mice

[1] = dose: 20.0 mg/kg/injection, schedule: Q01DX011 (ip), vehicle: carboxymethylcellulose (CMC)
[2] = dose: 50.0 mg/kg/injection, schedule: Q01DX011 (ip), vehicle: carboxymethylcellulose (CMC)
[3] = dose: 100.0 mg/kg/injection, schedule: Q01DX011 (ip), vehicle: carboxymethylcellulose (CMC)
[4] = dose: 200.0 mg/kg/injection, schedule: Q01DX011 (ip), vehicle: carboxymethylcellulose (CMC)
[5] = dose: 250.0 mg/kg/injection, schedule: Q01DX011 (ip), vehicle: saline
[6] = dose: 25.0 mg/kg/injection, schedule: Q01DX011 (ip), vehicle: carboxymethylcellulose (CMC)
[7] = dose: 1000.0 mg/kg/injection, schedule: Q01DX011 (ip), vehicle: carboxymethylcellulose (CMC)
[8] = dose: 250.0 mg/kg/injection, schedule: Q01DX011 (ip), vehicle: carboxymethylcellulose (CMC)
[9] = dose: 500.0 mg/kg/injection, schedule: Q01DX011 (ip), vehicle: carboxymethylcellulose (CMC)

## CNS(=O)(=O)c1ncnc2nc[nH]c12
[1]
  T/C: 94 % of control
dose: 26.0 mg/kg/injection, schedule: Q01DX011 (ip), vehicle: carboxymethylcellulose (CMC)
  T/C: 86 % of control
dose: 35.0 mg/kg/injection, schedule: Q01DX011 (ip), vehicle: carboxymethylcellulose (CMC)
  T/C: 96 % of control
dose: 70.62 mg/kg/injection, schedule: Q01DX011 (ip), vehicle: carboxymethylcellulose (CMC)
  T/C: 43 % of control
dose: 107.0 mg/kg/injection, schedule: Q01DX011 (ip), vehicle: carboxymethylcellulose (CMC)
  T/C: 49 % of control

## CCCn1cnc2c(SCc3ccccc3Cl)nc(N)nc21
[2]
  T/C: 57 % of control
[3]
  T/C: 41 % of control
[4]
  T/C: 12 % of control
dose: 400.0 mg/kg/injection, schedule: Q01DX011 (ip), vehicle: carboxymethylcellulose (CMC)
  T/C: 5 % of control

## CC(=O)N(C)C
[5]
  T/C: 113 % of control

## C=CC1CN2CCC1CC2C(O)c1ccnc2ccc(OC)cc12 (stereo not drawn)
dose: 27.0 mg/kg/injection, schedule: Q01DX011 (ip), vehicle: carboxymethylcellulose (CMC)
  T/C: 104 % of control
dose: 27.0 mg/kg/injection, schedule: Q01DX011 (ip), vehicle: other
  T/C: 202 % of control
dose: 27.5 mg/kg/injection, schedule: Q01DX011 (ip), vehicle: other
  T/C: 226 % of control
dose: 55.0 mg/kg/injection, schedule: Q01DX011 (ip), vehicle: carboxymethylcellulose (CMC)
  T/C: 114 % of control
dose: 55.0 mg/kg/injection, schedule: Q01DX011 (ip), vehicle: other
  T/C: 263 % of control
dose: 110.0 mg/kg/injection, schedule: Q01DX011 (ip), vehicle: other
  T/C: 105 % of control and 219 % of control
dose: 220.0 mg/kg/injection, schedule: Q01DX011 (ip), vehicle: carboxymethylcellulose (CMC)
  T/C: 90 % of control
dose: 220.0 mg/kg/injection, schedule: Q01DX011 (ip), vehicle: other
  T/C: 204 % of control

## NC(N)=N/N=C/C=N/N=C(N)N
dose: 50.0 mg/kg/injection, schedule: Q01DX011 (ip), vehicle: saline
  T/C: 189 % of control

## CN(C)Nc1ncnc2nc[nH]c12
dose: 5.0 mg/kg/injection, schedule: Q01DX011 (ip), vehicle: carboxymethylcellulose (CMC)
  T/C: 74 % of control
dose: 10.0 mg/kg/injection, schedule: Q01DX011 (ip), vehicle: carboxymethylcellulose (CMC)
  T/C: 80 % of control
[1]
  T/C: 59 % of control and 65 % of control
dose: 40.0 mg/kg/injection, schedule: Q01DX011 (ip), vehicle: carboxymethylcellulose (CMC)
  T/C: 17 % of control and 35 % of control

## COC(=O)/C=C\C(=O)O (tested in a mixture with another compound)
dose: 14.0 mg/kg/injection, schedule: Q#A X022 (ip), vehicle: carboxymethylcellulose (CMC)
  T/C: 88 % of control
dose: 28.0 mg/kg/injection, schedule: Q#A X022 (ip), vehicle: carboxymethylcellulose (CMC)
  T/C: 92 % of control
dose: 31.0 mg/kg/injection, schedule: Q#A X022 (ip), vehicle: carboxymethylcellulose (CMC)
  T/C: 68 % of control
dose: 56.0 mg/kg/injection, schedule: Q#A X022 (ip), vehicle: carboxymethylcellulose (CMC)
  T/C: 49 % of control
dose: 62.5 mg/kg/injection, schedule: Q#A X022 (ip), vehicle: carboxymethylcellulose (CMC)
  T/C: 36 % of control

## CCOC(=O)NP(=O)(N1CC1(C)C)N1CC1(C)C (stereo not drawn)
dose: 125.0 mg/kg/injection, schedule: Q01DX011 (ip), vehicle: saline
  T/C: 73 % of control
dose: 187.0 mg/kg/injection, schedule: Q01DX011 (ip), vehicle: saline
  T/C: 101 % of control
[5]
  T/C: 65 % of control
dose: 375.0 mg/kg/injection, schedule: Q01DX011 (ip), vehicle: saline
  T/C: 24 % of control

## C[C@H]1C[C@H]2[C@@H]3CC[C@](O)(C(=O)CO)[C@@]3(C)C[C@H](O)[C@]2(F)[C@@]2(C)C=CC(=O)C=C12
dose: 0.5 mg/kg/injection, schedule: Q01DX011 (sc), vehicle: steriod suspending solution
  T/C: 61 % of control and 63 % of control
dose: 1.0 mg/kg/injection, schedule: Q01DX011 (sc), vehicle: steriod suspending solution
  T/C: 76 % of control and 91 % of control
dose: 3.0 mg/kg/injection, schedule: Q01DX011 (sc), vehicle: steriod suspending solution
  T/C: 60 % of control and 74 % of control
dose: 6.0 mg/kg/injection, schedule: Q01DX011 (sc), vehicle: steriod suspending solution
  T/C: 31 % of control
dose: 7.0 mg/kg/injection, schedule: Q01DX011 (sc), vehicle: steriod suspending solution
  T/C: 47 % of control
dose: 15.0 mg/kg/injection, schedule: Q01DX011 (sc), vehicle: steriod suspending solution
  T/C: 28 % of control
dose: 30.0 mg/kg/injection, schedule: Q01DX011 (sc), vehicle: steriod suspending solution
  T/C: 17 % of control
dose: 60.0 mg/kg/injection, schedule: Q01DX011 (sc), vehicle: steriod suspending solution
  T/C: 10 % of control
dose: 120.0 mg/kg/injection, schedule: Q01DX011 (sc), vehicle: steriod suspending solution
  T/C: 5 % of control

## O=[n+]1c2c(n([O-])c3ccccc31)-c1cccc3cccc-2c13
[6]
  T/C: 87 % of control
[2]
  T/C: 55 % of control
[3]
  T/C: 43 % of control

## NC1(C(=O)O)CCCC1
dose: 4.5 mg/kg/injection, schedule: Q01DX011 (ip), vehicle: carboxymethylcellulose (CMC)
  T/C: 95 % of control
dose: 9.0 mg/kg/injection, schedule: Q01DX011 (ip), vehicle: carboxymethylcellulose (CMC)
  T/C: 89 % of control
dose: 18.0 mg/kg/injection, schedule: Q01DX011 (ip), vehicle: carboxymethylcellulose (CMC)
  T/C: 63 % of control
dose: 36.0 mg/kg/injection, schedule: Q01DX011 (ip), vehicle: carboxymethylcellulose (CMC)
  T/C: 53 % of control

## Brc1ncnc2nc[nH]c12
dose: 75.0 mg/kg/injection, schedule: Q01DX011 (ip), vehicle: carboxymethylcellulose (CMC)
  T/C: 51 % of control
dose: 113.0 mg/kg/injection, schedule: Q01DX011 (ip), vehicle: carboxymethylcellulose (CMC)
  T/C: 82 % of control
dose: 171.0 mg/kg/injection, schedule: Q01DX011 (ip), vehicle: carboxymethylcellulose (CMC)
  T/C: 43 % of control
dose: 256.0 mg/kg/injection, schedule: Q01DX011 (ip), vehicle: carboxymethylcellulose (CMC)
  T/C: 34 % of control

## C[C@H](N)C(=O)N[C@@H]1[C@H]2C(=C(O)C[C@@H](O)[C@@H]2O)C(=O)O[C@@H]1C
[3]
  T/C: 43 % of control
[4]
  T/C: 48 % of control
[7]
  T/C: 17 % of control

## CCCNC(=NC)c1ccc(NC(=O)c2ccc(C(=O)Nc3ccc(C(=NC)NCCC)cc3)cc2)cc1
dose: 3.0 mg/kg/injection, schedule: Q01DX011 (ip), vehicle: carboxymethylcellulose (CMC)
  T/C: 80 % of control
dose: 6.0 mg/kg/injection, schedule: Q01DX011 (ip), vehicle: carboxymethylcellulose (CMC)
  T/C: 65 % of control

## CNCc1ccccc1
dose: 43.5 mg/kg/injection, schedule: Q01DX011 (ip), vehicle: saline
  T/C: 110 % of control
dose: 87.0 mg/kg/injection, schedule: Q01DX011 (ip), vehicle: saline
  T/C: 100 % of control

## C[C@]12C=CC(=O)C=C1CC[C@@H]1[C@@H]2CC[C@]2(C)OC(=O)CC[C@@H]12
dose: 250.0 mg/kg/injection, schedule: Q01DX011 (sc), vehicle: steriod suspending solution
  T/C: 115 % of control
dose: 500.0 mg/kg/injection, schedule: Q01DX011 (sc), vehicle: steriod suspending solution
  T/C: 120 % of control
dose: 1000.0 mg/kg/injection, schedule: Q01DX011 (sc), vehicle: steriod suspending solution
  T/C: 112 % of control

## CC1(C)CC(C)(c2ccccc2)c2ccccc21 (stereo not drawn)
dose: 62.5 mg/kg/injection, schedule: Q01DX011 (ip), vehicle: carboxymethylcellulose (CMC)
  T/C: 68 % of control
dose: 125.0 mg/kg/injection, schedule: Q01DX011 (ip), vehicle: carboxymethylcellulose (CMC)
  T/C: 70 % of control
[8]
  T/C: 67 % of control
[9]
  T/C: 25 % of control

## CCn1cnc2c(=S)nc[nH]c21
[6]
  T/C: 105 % of control
[2]
  T/C: 66 % of control
[3]
  T/C: 12 % of control

## COc1cc([C@@H]2c3cc4c(cc3[C@H](O)[C@H]3COC(=O)[C@H]23)OCO4)cc(OC)c1OC
dose: 0.13 mg/kg/injection, schedule: Q01DX011 (ip), vehicle: carboxymethylcellulose (CMC)
  T/C: 86 % of control
dose: 0.55 mg/kg/injection, schedule: Q01DX011 (ip), vehicle: carboxymethylcellulose (CMC)
  T/C: 86 % of control
dose: 135.0 micrograms/kg/injection, schedule: Q01DX011 (ip), vehicle: carboxymethylcellulose (CMC)
  T/C: 83 % of control
dose: 270.0 micrograms/kg/injection, schedule: Q01DX011 (ip), vehicle: carboxymethylcellulose (CMC)
  T/C: 114 % of control
dose: 550.0 micrograms/kg/injection, schedule: Q01DX011 (ip), vehicle: carboxymethylcellulose (CMC)
  T/C: 75 % of control
dose: 1100.0 micrograms/kg/injection, schedule: Q01DX011 (ip), vehicle: carboxymethylcellulose (CMC)
  T/C: 87 % of control

## Nc1nc(SCc2ccccc2)c2ncn(C3CCCC3)c2n1
[8]
  T/C: 69 % of control
[9]
  T/C: 64 % of control
[7]
  T/C: 5 % of control

## CCCCCCCCCC(C)(O)C#CC(C)(O)CCCCCCCCC (stereo not drawn)
dose: 12.0 mg/kg/injection, schedule: Q01DX011 (ip), vehicle: carboxymethylcellulose (CMC)
  T/C: 81 % of control
[6]
  T/C: 82 % of control
[2]
  T/C: 58 % of control and 59 % of control
[3]
  T/C: 55 % of control
[4]
  T/C: 34 % of control
